This passage reports IC50 results from ChEMBL document CHEMBL1158675, “A bioactive secosterol with an unusual A- and B-ring oxygenation pattern isolated from an Indonesian soft coral Lobophytum sp” (J Nat Prod, 1998).

A word on the IC50: it is the concentration that inhibits the measured activity by half. A lower IC50 goes with higher potency.

In one test the test system is K562. The test is described as follows: Cytotoxicity against human K562 cells. It counts as functional, cell-based.
Another test has as its system A2780. The test is described as follows: Cytotoxicity against human A2780 cells. It counts as functional, cell-based.

The structures appear in SMILES notation.

As for `CC(C)[C@@H](C)[C@@]1(C)C[C@@H]1[C@@H](C)[C@H]1CC[C@@H]([C@H]2C(=O)[C@@]3(C)CC[C@H](O)C[C@@]34O[C@H]4[C@@H]2O)[C@]1(C)CCO`, the IC50 in the test with K562 was determined as 7.1 µM; with A2780, 6.3 µM.
